Laboratory results as given in the supplement of paper PMC10307832.

Each cell line was assayed with O=C(/C=C/c1ccccc1)NC(NC(=S)Nc1cccc2cccnc12)C(Cl)(Cl)Cl [Salubrinal] + N=C(N)NC(=N)NCCc1ccccc1 [Phenformin] (partner 250 µM) (assay: relative viability (nuclei count vs DMSO), 5 days (fraction); higher = more cells survive). Details: first compound 0.08 µM.
Outline: (§1)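 Each reported value is a median over duplicate plates. It expresses relative viability: treated-well nuclei count divided by vehicle-well nuclei count. Lung cancer cell lines in 1536-well plates were dosed by pin tool a day after seeding, alone with one drug or with a fixed anchor-drug dose plus five library-drug doses (not always all listed) in √10 steps, and nuclei were counted after 5 days.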
LC-2-ad was tested, and the relative viability was 0.65.
In the case of NCI-H1975, the relative viability is reported as 0.465.
With RERF-LC-KJ the relative viability was 0.442.
Cell Line ABC-1 has a relative viability of 0.225.
NCI-H1944 showed a relative viability of 0.198.
In the case of NCI-H650, the relative viability is reported as 0.456.
PC-3 [JPC-3] was tested, and the relative viability was 0.471.

Same assay, conditions: first compound 0.253 µM
With LC-2-ad the relative viability was 0.609.
Cell Line NCI-H1975 has a relative viability of 0.359.
For RERF-LC-KJ, the relative viability was 0.39.
Work on ABC-1 yielded a relative viability of 0.268.
For NCI-H1944, the relative viability was 0.191.
For NCI-H650, the relative viability was 0.514.
Cell Line PC-3 [JPC-3] has a relative viability of 0.448.

Same assay, conditions: first compound 0.8 µM
Work on LC-2-ad yielded a relative viability of 0.744.
NCI-H1975 was tested, and the relative viability was 0.434.
Work on RERF-LC-KJ yielded a relative viability of 0.414.
ABC-1 gave a relative viability of 0.281.
Work on NCI-H1944 yielded a relative viability of 0.214.
NCI-H650 was tested, and the relative viability was 0.509.
With PC-3 [JPC-3] the relative viability was 0.529.

Same assay, conditions: first compound 2.53 µM
LC-2-ad was tested, and the relative viability was 0.621.
With NCI-H1975 the relative viability was 0.427.
For RERF-LC-KJ, the relative viability was 0.408.
ABC-1 was tested, and the relative viability was 0.214.
NCI-H1944 showed a relative viability of 0.185.
NCI-H650 was tested, and the relative viability was 0.499.
Cell Line PC-3 [JPC-3] has a relative viability of 0.475.

Same assay, conditions: first compound 8 µM
LC-2-ad showed a relative viability of 0.596.
Work on NCI-H1975 yielded a relative viability of 0.375.
RERF-LC-KJ showed a relative viability of 0.413.
For ABC-1, the relative viability was 0.24.
NCI-H1944 gave a relative viability of 0.178.
With NCI-H650 the relative viability was 0.417.
For PC-3 [JPC-3], the relative viability was 0.467.

The cell lines below were run with Cc1ccc2nc(NCCN)c3ncc(C)n3c2c1 + N=C(N)NC(=N)NCCc1ccccc1 [Phenformin] (partner 250 µM) in the same assay as above. Details: first compound 0.04 µM.
Outline: as §1
In the case of LC-2-ad, the relative viability is reported as 0.637.
For NCI-H1975, the relative viability was 0.415.
Work on RERF-LC-KJ yielded a relative viability of 0.404.
ABC-1 showed a relative viability of 0.236.
NCI-H1944 showed a relative viability of 0.201.
NCI-H650 showed a relative viability of 0.462.
Cell Line PC-3 [JPC-3] has a relative viability of 0.503.

Same assay, conditions: first compound 0.1265 µM
For LC-2-ad, the relative viability was 0.546.
NCI-H1975 gave a relative viability of 0.394.
For RERF-LC-KJ, the relative viability was 0.374.
In the case of ABC-1, the relative viability is reported as 0.27.
NCI-H1944 showed a relative viability of 0.196.
Cell Line NCI-H650 has a relative viability of 0.476.
Work on PC-3 [JPC-3] yielded a relative viability of 0.475.

Same assay, conditions: first compound 0.4 µM
Work on LC-2-ad yielded a relative viability of 0.55.
With NCI-H1975 the relative viability was 0.432.
In the case of RERF-LC-KJ, the relative viability is reported as 0.462.
For ABC-1, the relative viability was 0.297.
NCI-H1944 was tested, and the relative viability was 0.201.
With NCI-H650 the relative viability was 0.437.
Work on PC-3 [JPC-3] yielded a relative viability of 0.459.

Same assay, conditions: first compound 1.265 µM
Work on LC-2-ad yielded a relative viability of 0.547.
In the case of NCI-H1975, the relative viability is reported as 0.414.
Work on RERF-LC-KJ yielded a relative viability of 0.453.
Work on ABC-1 yielded a relative viability of 0.248.
Work on NCI-H1944 yielded a relative viability of 0.187.
NCI-H650 gave a relative viability of 0.441.
With PC-3 [JPC-3] the relative viability was 0.497.

Same assay, conditions: first compound 4 µM
In the case of LC-2-ad, the relative viability is reported as 0.44.
NCI-H1975 showed a relative viability of 0.355.
Cell Line RERF-LC-KJ has a relative viability of 0.353.
For ABC-1, the relative viability was 0.226.
With NCI-H1944 the relative viability was 0.195.
For NCI-H650, the relative viability was 0.425.
PC-3 [JPC-3] showed a relative viability of 0.423.

These cell lines were tested with Cc1ccc2nc(NCCN)c3ncc(C)n3c2c1 + CC(=O)c1c(C)c2cnc(Nc3ccc(N4CCNCC4)cn3)nc2n(C2CCCC2)c1=O [Palbociclib] (partner 0.5 µM) in the same assay as above. Details: first compound 0.04 µM.
Outline: as §1
LC-2-ad showed a relative viability of 0.469.
In the case of NCI-H1975, the relative viability is reported as 0.626.
Cell Line RERF-LC-KJ has a relative viability of 0.969.
Work on ABC-1 yielded a relative viability of 0.785.
NCI-H1944 showed a relative viability of 0.333.
NCI-H650 showed a relative viability of 0.368.
PC-3 [JPC-3] was tested, and the relative viability was 0.56.

Same assay, conditions: first compound 0.1265 µM
With LC-2-ad the relative viability was 0.524.
In the case of NCI-H1975, the relative viability is reported as 0.583.
With RERF-LC-KJ the relative viability was 1.
ABC-1 showed a relative viability of 0.792.
For NCI-H1944, the relative viability was 0.322.
NCI-H650 was tested, and the relative viability was 0.316.
Work on PC-3 [JPC-3] yielded a relative viability of 0.56.

Same assay, conditions: first compound 0.4 µM
LC-2-ad showed a relative viability of 0.482.
For NCI-H1975, the relative viability was 0.647.
Cell Line RERF-LC-KJ has a relative viability of 1.14.
ABC-1 gave a relative viability of 0.887.
Work on NCI-H1944 yielded a relative viability of 0.349.
With NCI-H650 the relative viability was 0.258.
For PC-3 [JPC-3], the relative viability was 0.552.

Same assay, conditions: first compound 1.265 µM
Cell Line LC-2-ad has a relative viability of 0.51.
For NCI-H1975, the relative viability was 0.611.
RERF-LC-KJ was tested, and the relative viability was 1.08.
Work on ABC-1 yielded a relative viability of 0.649.
NCI-H1944 gave a relative viability of 0.31.
NCI-H650 was tested, and the relative viability was 0.304.
PC-3 [JPC-3] was tested, and the relative viability was 0.513.

Same assay, conditions: first compound 4 µM
LC-2-ad showed a relative viability of 0.452.
NCI-H1975 gave a relative viability of 0.517.
Work on RERF-LC-KJ yielded a relative viability of 0.881.
ABC-1 gave a relative viability of 0.538.
With NCI-H1944 the relative viability was 0.297.
NCI-H650 gave a relative viability of 0.332.
Work on PC-3 [JPC-3] yielded a relative viability of 0.512.

The cell lines below were run with Cc1ccc2nc(NCCN)c3ncc(C)n3c2c1 + COc1cccc2cc(-c3nc([C@H]4CC[C@H](C(=O)O)CC4)n4ncnc(N)c34)[nH]c12 [OSI-027] (partner 0.5 µM) in the same assay as above. Details: first compound 0.04 µM.
Outline: as §1
With LC-2-ad the relative viability was 0.866.
Work on NCI-H1975 yielded a relative viability of 0.709.
RERF-LC-KJ showed a relative viability of 0.596.
Work on ABC-1 yielded a relative viability of 0.595.
With NCI-H1944 the relative viability was 0.391.
NCI-H650 gave a relative viability of 0.558.
In the case of PC-3 [JPC-3], the relative viability is reported as 0.776.

Same assay, conditions: first compound 0.1265 µM
For LC-2-ad, the relative viability was 0.825.
With NCI-H1975 the relative viability was 0.692.
With RERF-LC-KJ the relative viability was 0.639.
ABC-1 was tested, and the relative viability was 0.559.
With NCI-H1944 the relative viability was 0.376.
NCI-H650 showed a relative viability of 0.585.
With PC-3 [JPC-3] the relative viability was 0.83.

Same assay, conditions: first compound 0.4 µM
Cell Line LC-2-ad has a relative viability of 0.789.
Work on NCI-H1975 yielded a relative viability of 0.711.
With RERF-LC-KJ the relative viability was 0.566.
ABC-1 showed a relative viability of 0.564.
With NCI-H1944 the relative viability was 0.341.
With NCI-H650 the relative viability was 0.443.
Cell Line PC-3 [JPC-3] has a relative viability of 0.734.

Same assay, conditions: first compound 1.265 µM
LC-2-ad gave a relative viability of 0.889.
In the case of NCI-H1975, the relative viability is reported as 0.716.
Cell Line RERF-LC-KJ has a relative viability of 0.604.
ABC-1 gave a relative viability of 0.439.
Work on NCI-H1944 yielded a relative viability of 0.443.
Cell Line NCI-H650 has a relative viability of 0.538.
In the case of PC-3 [JPC-3], the relative viability is reported as 0.822.

Same assay, conditions: first compound 4 µM
For LC-2-ad, the relative viability was 0.784.
Work on NCI-H1975 yielded a relative viability of 0.523.
Work on RERF-LC-KJ yielded a relative viability of 0.52.
ABC-1 was tested, and the relative viability was 0.484.
NCI-H1944 was tested, and the relative viability was 0.403.
NCI-H650 was tested, and the relative viability was 0.513.
PC-3 [JPC-3] gave a relative viability of 0.767.
